Reference: patent publication US20260325533A1, “CDK INHIBITOR COMPOUNDS” (ALEKSIA THERAPEUTICS, INC., priority 2023, published 2026)
pIC50: −log10 of the molar value. Like-named read-outs stand apart in the source and are kept apart here.

Experiments:
Type in all cases: biochemical
[1] = target: CDK1/CCNB1 (Homo sapiens, UniProt P06493); assay: CDK1 homogeneous time-resolved fluorescence (HTRF) kinase assay; conditions: CDK1/CCNB
Outline: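 Read-out: TR-FRET (Eu anti-phospho-4E-BP1 Thr37/46 antibody, 2 nM; 665 nm or 665/615 ratio) after 60 min phosphorylation of 50 nM ULight-peptide by 0.5 nM CDK1/CCNB1 at 1 mM ATP, 23 °C. Compound preincubated 20 min with enzyme; 1% DMSO.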

[2] = target: CDK4/CCND3 (Homo sapiens, UniProt P11802); assay: CDK4 homogeneous time-resolved fluorescence (HTRF) kinase assay; conditions: CDK4/CCND
Outline: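 HTRF kinase assay, CDK4/CCND3 1.5 nM, ATP 1 mM, ULight-4E-BP1 peptide 50 nM, 23 °C, 60 min reaction after 20 min preincubation. Eu-anti-pThr37/46 antibody detection. 11-pt half-log curves from 10 μM → IC50.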

[3] = target: CDK2/CCNE1 (Homo sapiens, UniProt P24941); assay: CDK2 homogeneous time-resolved fluorescence (HTRF) kinase assay; conditions: CDK2/CCNE
Outline: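 An HTRF format measures CDK2/CCNE1 (3 nM) phosphorylating a 4E-BP1 Thr37/46 peptide at high (1 mM) ATP. Reactions run one hour at 23 °C, then EDTA-quenched and probed with Eu-labelled phospho-specific antibody.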

[4] = target: CDK6/CCND1 (Homo sapiens, UniProt Q00534); assay: CDK6 homogeneous time-resolved fluorescence (HTRF) kinase assay; conditions: CDK6/CCND
Outline: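 Recombinant CDK6/CCND1 (1 nM final) was preincubated with compound for 20 min at 23 °C in HEPES buffer with MgCl2, EGTA, DTT and Tween 20. Kinase reaction then ran 60 min at 23 °C with 1 mM ATP and 50 nM ULight-4E-BP1 (Thr37/46) peptide, and was stopped with EDTA.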

[5] = x = IC50 25-250 nM, read-out: CDK1/CCNB IC50 (25-250 nM)
[6] = x = IC50 <25 nM, read-out: CDK2/CCNE IC50 (<25 nM)
[7] = x = IC50 >250 nM, read-out: CDK1/CCNB IC50 (>250 nM column)
[8] = x = IC50 >250 nM, read-out: CDK4/CCND IC50 (>250 nM column)
[9] = x = IC50 >250 nM, read-out: CDK6/CCND IC50 (>250 nM column)
[10] = x = IC50 25-250 nM, read-out: CDK2/CCNE IC50 (25-250 nM)

Sequence of CDK6/CCND1 (Q00534 whole entry): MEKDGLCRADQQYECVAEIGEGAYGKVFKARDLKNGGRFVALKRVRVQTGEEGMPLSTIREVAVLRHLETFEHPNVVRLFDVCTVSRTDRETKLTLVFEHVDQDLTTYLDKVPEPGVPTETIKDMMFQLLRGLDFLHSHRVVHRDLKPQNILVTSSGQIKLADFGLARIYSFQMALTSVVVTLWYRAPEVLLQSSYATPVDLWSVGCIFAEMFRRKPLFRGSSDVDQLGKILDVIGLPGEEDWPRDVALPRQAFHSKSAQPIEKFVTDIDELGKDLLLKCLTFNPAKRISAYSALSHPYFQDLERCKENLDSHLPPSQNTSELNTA
Sequence of CDK6/CCND1 (P24385 whole entry partner): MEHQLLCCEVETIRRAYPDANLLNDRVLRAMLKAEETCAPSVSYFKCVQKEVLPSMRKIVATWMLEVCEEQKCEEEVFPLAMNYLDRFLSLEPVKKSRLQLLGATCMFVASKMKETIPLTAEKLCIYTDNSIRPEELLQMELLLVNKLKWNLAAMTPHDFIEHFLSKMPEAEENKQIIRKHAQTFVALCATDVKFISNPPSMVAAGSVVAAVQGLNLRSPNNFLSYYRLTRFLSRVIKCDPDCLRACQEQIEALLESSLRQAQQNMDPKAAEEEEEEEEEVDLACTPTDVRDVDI
Sequence of CDK1/CCNB1 (P06493 whole entry): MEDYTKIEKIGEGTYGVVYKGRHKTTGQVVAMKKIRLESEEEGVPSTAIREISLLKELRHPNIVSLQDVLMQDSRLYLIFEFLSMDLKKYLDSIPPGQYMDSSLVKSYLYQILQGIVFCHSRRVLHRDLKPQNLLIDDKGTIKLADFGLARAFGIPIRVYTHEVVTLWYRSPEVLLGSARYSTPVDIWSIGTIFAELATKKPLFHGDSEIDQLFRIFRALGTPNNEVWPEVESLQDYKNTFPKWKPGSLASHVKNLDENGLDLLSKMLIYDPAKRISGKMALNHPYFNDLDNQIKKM
Sequence of CDK1/CCNB1 (P14635 whole entry partner): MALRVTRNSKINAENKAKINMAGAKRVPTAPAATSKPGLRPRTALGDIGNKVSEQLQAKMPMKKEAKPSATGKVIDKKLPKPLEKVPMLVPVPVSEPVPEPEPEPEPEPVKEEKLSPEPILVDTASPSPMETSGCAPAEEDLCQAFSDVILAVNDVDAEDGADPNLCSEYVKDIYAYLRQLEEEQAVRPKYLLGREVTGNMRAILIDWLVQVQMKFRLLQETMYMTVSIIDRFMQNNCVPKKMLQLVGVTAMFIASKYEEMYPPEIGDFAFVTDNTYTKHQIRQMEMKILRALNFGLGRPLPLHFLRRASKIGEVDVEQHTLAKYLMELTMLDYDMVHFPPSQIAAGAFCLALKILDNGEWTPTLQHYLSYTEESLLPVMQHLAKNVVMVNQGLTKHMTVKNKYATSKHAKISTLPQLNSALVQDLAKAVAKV
Sequence of CDK4/CCND3 (P11802 whole entry): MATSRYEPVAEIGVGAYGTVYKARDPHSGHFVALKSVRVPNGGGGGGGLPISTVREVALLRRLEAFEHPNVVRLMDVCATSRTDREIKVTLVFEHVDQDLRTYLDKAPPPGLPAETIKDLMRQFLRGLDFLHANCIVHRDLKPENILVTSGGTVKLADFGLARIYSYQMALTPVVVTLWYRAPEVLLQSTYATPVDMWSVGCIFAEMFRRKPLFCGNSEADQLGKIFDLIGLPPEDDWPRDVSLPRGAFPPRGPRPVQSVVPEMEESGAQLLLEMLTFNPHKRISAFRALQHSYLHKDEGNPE
Sequence of CDK4/CCND3 (P30281 whole entry partner): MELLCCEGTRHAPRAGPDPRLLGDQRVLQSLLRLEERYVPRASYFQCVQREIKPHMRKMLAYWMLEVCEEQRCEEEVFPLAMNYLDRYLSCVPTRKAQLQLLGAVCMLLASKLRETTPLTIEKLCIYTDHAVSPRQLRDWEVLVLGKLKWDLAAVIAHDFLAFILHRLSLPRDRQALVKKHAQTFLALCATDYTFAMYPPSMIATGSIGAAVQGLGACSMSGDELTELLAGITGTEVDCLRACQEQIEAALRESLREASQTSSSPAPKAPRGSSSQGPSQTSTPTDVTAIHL

Structure (SMILES) | pIC50 [1, 5] | pIC50 ([2]; x = IC50 25-250 nM, read-out: CDK4/CCND IC50 (25-250 nM)) | pIC50 [3, 6] | pIC50 ([4]; x = IC50 25-250 nM, read-out: CDK6/CCND IC50 (25-250 nM)) | pIC50 [1, 7] | pIC50 [2, 8] | pIC50 [4, 9] | pIC50 [3, 10]
Nc1ncccc1C#Cc1nccc2cnc(Nc3ccc(S(=O)(=O)C4CC4)cc3)cc12 [Ex 399, 5-((2-aminopyridin-3-yl)ethynyl)-N-(4-(cyclopropylsulfonyl)phenyl)-2,6-naphthyridin-3-amine] | – | – | > 7.60 | – | < 6.60 | < 6.60 | < 6.60 | –
CC(C)S(=O)(=O)c1ccc(Nc2cc3c(C#Cc4cccnc4N)nccc3cn2)cc1 [Ex 400, 5-((2-aminopyridin-3-yl)ethynyl)-N-(4-(isopropylsulfonyl)phenyl)-2,6-naphthyridin-3-amine] | – | – | – | – | < 6.60 | < 6.60 | < 6.60 | 6.60 to 7.60
CCS(=O)(=O)c1ccc(Nc2cc3c(C#Cc4cccnc4N)nccc3cn2)cc1 [Ex 401, 5-((2-aminopyridin-3-yl)ethynyl)-N-(4-(ethylsulfonyl)phenyl)-2,6-naphthyridin-3-amine] | – | – | > 7.60 | – | < 6.60 | < 6.60 | < 6.60 | –
CS(=O)(=O)c1ccc(Nc2cc3c(C#Cc4cccnc4N)nccc3cn2)c(F)c1 [Ex 418, 5-((2-aminopyridin-3-yl)ethynyl)-N-(2-fluoro-4-(methylsulfonyl)phenyl)-2,6-naphthyridin-3-amine] | – | – | – | – | < 6.60 | < 6.60 | < 6.60 | 6.60 to 7.60
CS(=O)(=O)c1ccc(Nc2cc3c(C#Cc4cccnc4N)nccc3cn2)nc1 [Ex 419, 5-((2-aminopyridin-3-yl)ethynyl)-N-(5-(methylsulfonyl)pyridin-2-yl)-2,6-naphthyridin-3-amine] | – | – | – | – | < 6.60 | < 6.60 | < 6.60 | 6.60 to 7.60
Cc1cc(S(C)(=O)=O)ccc1Nc1cc2c(C#Cc3cccnc3N)nccc2cn1 [Ex 420, 5-((2-aminopyridin-3-yl)ethynyl)-N-(2-methyl-4-(methylsulfonyl)phenyl)-2,6-naphthyridin-3-amine] | – | – | – | – | < 6.60 | < 6.60 | < 6.60 | 6.60 to 7.60

The remaining lines, values ahead:

pIC50 [1, 5] | pIC50 ([2]; x = IC50 25-250 nM, read-out: CDK4/CCND IC50 (25-250 nM)) | pIC50 [3, 6] | pIC50 ([4]; x = IC50 25-250 nM, read-out: CDK6/CCND IC50 (25-250 nM)) | pIC50 [1, 7] | pIC50 [2, 8] | pIC50 [4, 9] | pIC50 [3, 10] | Structure (SMILES)
6.60 to 7.60 | 6.60 to 7.60 | > 7.60 | 6.60 to 7.60 | – | – | – | – | CCS(=O)(=O)c1ccc(Nc2cc3c(C#Cc4ccc5c(c4)NC(=O)C54CC4)nccc3cn2)cc1 [Ex 397, 6'-((7-((4-(ethylsulfonyl)phenyl)amino)-2,6-naphthyridin-1-yl)ethynyl)spiro[cyclopropane-1,3'-indolin]-2'-one]
6.60 to 7.60 | – | > 7.60 | – | – | < 6.60 | < 6.60 | – | CCS(=O)(=O)c1ccc(Nc2cc3c(C#Cc4ccc5c(c4)NC(=O)C54CCC4)nccc3cn2)cc1 [Ex 405, 6'-((7-((4-(ethylsulfonyl)phenyl)amino)-2,6-naphthyridin-1-yl)ethynyl)spiro[cyclobutane-1,3'-indolin]-2'-one]
– | – | – | – | < 6.60 | < 6.60 | < 6.60 | 6.60 to 7.60 | CC1(C)C(=O)Nc2cc(C#Cc3nccc4cnc(Nc5ccc(S(C)(=O)=O)c(Cl)c5)cc34)ccc21 [Ex 407, 6-((7-((3-chloro-4-(methylsulfonyl)phenyl)amino)-2,6-naphthyridin-1-yl)ethynyl)-3,3-dimethylindolin-2-one]
– | – | > 7.60 | – | < 6.60 | < 6.60 | < 6.60 | – | CCC1(CC)C(=O)Nc2cc(C#Cc3nccc4cnc(Nc5ccc(S(=O)(=O)C6CCC6)cc5)cc34)ccc21 [Ex 409, 6-((7-((4-(cyclobutylsulfonyl)phenyl)amino)-2,6-naphthyridin-1-yl)ethynyl)-3,3-diethylindolin-2-one]
– | – | > 7.60 | – | < 6.60 | < 6.60 | < 6.60 | – | CC1(C)C(=O)Nc2cc(C#Cc3nccc4cnc(Nc5ccc(S(C)(=O)=O)c(F)c5)cc34)ccc21 [Ex 422, 6-((7-((3-fluoro-4-(methylsulfonyl)phenyl)amino)-2,6-naphthyridin-1-yl)ethynyl)-3,3-dimethylindolin-2-one]
